Data as given in the supplement of paper PMC11061612.

Tests used:
Assay in all cases: Bliss excess, mean over the matrix (fraction); higher = more synergy
[1] = system: DND-41 (T-Lymphoblastic Leukemia)
Method in brief: (§1)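 After 24 hours at 37°C and 5% CO2 in 1536-well plates, cells in DMEM/F12 or RPMI plus 10% FBS received two-drug dose matrices for 72 hours. Viability came from CellTiter-Glo 2.0 luminescence and was scaled as inhibition, anchored at 0 by vehicle wells and at 1 by blank wells. Combination Emax is taken as the second-highest inhibition in the matrix, and Bliss excess as the observed combination effect less EA + EB − EA·EB, with EA and EB the single-agent effects.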

MEL-JUSO (Melanoma) = system: MEL-JUSO (Melanoma)
Method in brief: as §1

[2] = system: BFTC-905 (Bladder Carcinoma)
Method in brief: as §1

[3] = system: SW837 (Colorectal Carcinoma)
Method in brief: as §1

[4] = system: BL-41 (Burkitt's Lymphoma)
Method in brief: as §1

WIL2-NS (Non-Cancerous) = system: WIL2-NS (Non-Cancerous)
Method in brief: as §1

[5] = system: COLO-678 (Colorectal Carcinoma)
Method in brief: as §1

U251 (Low Grade Glioma) = system: U251 (Low Grade Glioma)
Method in brief: as §1

[6] = system: SU-DHL-8 (B-Cell Non-Hodgkin's Lymphoma)
Method in brief: as §1

[7] = system: HDQ-P1 (Breast Carcinoma)
Method in brief: as §1

[8] = system: TOV-112D (Ovarian Carcinoma)
Method in brief: as §1

[9] = system: MS751 (Cervical Carcinoma)
Method in brief: as §1

[10] = system: KM12 (Colorectal Carcinoma)
Method in brief: as §1

CHP-212 (Neuroblastoma) = system: CHP-212 (Neuroblastoma)
Method in brief: as §1

[11] = system: KARPAS-45 (T-Lymphoblastic Leukemia)
Method in brief: as §1

[12] = system: CAMA-1 (Breast Carcinoma)
Method in brief: as §1

ES1 (Ewing's Sarcoma) = system: ES1 (Ewing's Sarcoma)
Method in brief: as §1

[13] = system: L-540 (Hodgkin's Lymphoma)
Method in brief: as §1

[14] = system: SW1417 (Colorectal Carcinoma)
Method in brief: as §1

NCI-H2818 (Mesothelioma) = system: NCI-H2818 (Mesothelioma)
Method in brief: as §1

Row | Structure (SMILES) | Bliss excess [1] | Bliss excess (MEL-JUSO (Melanoma)) | Bliss excess [2] | Bliss excess [3] | Bliss excess [4] | Bliss excess (WIL2-NS (Non-Cancerous)) | Bliss excess [5] | Bliss excess (U251 (Low Grade Glioma)) | Bliss excess [6] | Bliss excess [7] | Bliss excess [8] | Bliss excess [9] | Bliss excess [10] | Bliss excess (CHP-212 (Neuroblastoma)) | Bliss excess [11] | Bliss excess [12] | Bliss excess (ES1 (Ewing's Sarcoma)) | Bliss excess [13] | Bliss excess [14] | Bliss excess (NCI-H2818 (Mesothelioma))
1 | Cn1cnc2c(F)c(Nc3ccc(Br)cc3Cl)c(C(=O)NOCCO)cc21 [Selumetinib] + CCN(CCO)CCCOc1ccc2c(Nc3cc(CC(=O)Nc4cccc(F)c4)[nH]n3)ncnc2c1 [AZD2811] (first compound max 10 µM, 7x7, partner max 1 µM) | 0.0298 | -0.0206 | 0.0253 | -0.0311 | 0.0338 | 0.0264 | -0.0223 | -0.034 | -0.0216 | -0.0538 | -0.01 | 0.055 | -0.0409 | -0.0316 | -0.0434 | -0.0227 | 0.0048 | -0.0634 | 0.058 | -0.0106
2 | Cn1cnc2c(F)c(Nc3ccc(Br)cc3Cl)c(C(=O)NOCCO)cc21 [Selumetinib] + C[C@@H]1COCCN1C2=NC(=NC(=C2)C3(CC3)[S@](=N)(=O)C)C4=C5C=CNC5=NC=C4 [AZD6738] (first compound max 10 µM, 7x7, partner max 10 µM) | -0.0233 | 0.0935 | -0.0351 | -0.095 | -0.0299 | -0.033 | 0.132 | -0.0149 | -0.0454 | 0.0228 | -0.0377 | 0.0516 | 0.0286 | -0.0474 | 0.0047 | -0.0506 | -0.0257 | -0.0415 | 0.0363 | -0.0144
3 | CC(=O)Nc1cccc(-n2c(=O)n(C3CC3)c(=O)c3c(Nc4ccc(I)cc4F)n(C)c(=O)c(C)c32)c1 [Trametinib] + Cc1nc(-c2cn3c(n2)-c2ccc(-c4cnn(C(C)(C)C(N)=O)c4)cc2OCC3)n(C(C)C)n1 [Taselisib] (first compound max 1 µM, 7x7, partner max 10 µM) | 0.164 | 0.12 | 0.167 | 0.05 | 0.0485 | 0.174 | -0.0114 | 0.132 | -0.0358 | 0.221 | 0.176 | 0.128 | 0.0284 | 0.0363 | 0.112 | -0.0565 | 0.0161 | 0.0227 | -0.0045 | -0.0103
4 | CC1(C)CCC(CN2CCN(c3ccc(C(=O)NS(=O)(=O)c4ccc(NCC5CCOCC5)c([N+](=O)[O-])c4)c(Oc4cnc5[nH]ccc5c4)c3)CC2)=C(c2ccc(Cl)cc2)C1 [Venetoclax] + C1CN(CCC1(C(=O)N[C@@H](CCO)C2=CC=C(C=C2)Cl)N)C3=NC=NC4=C3C=CN4 [Capivasertib] (first compound max 1 µM, 7x7, partner max 3 µM) | 0.0019 | -0.0436 | -0.0288 | -0.0256 | -0.0058 | -0.0145 | -0.118 | -0.0133 | -0.0918 | -0.0234 | -0.0285 | -0.0161 | -0.041 | -0.0467 | 0.0512 | -0.056 | 0.0278 | -0.0178 | -0.0744 | -0.0628
5 | CC1(C)CCC(CN2CCN(c3ccc(C(=O)NS(=O)(=O)c4ccc(NCC5CCOCC5)c([N+](=O)[O-])c4)c(Oc4cnc5[nH]ccc5c4)c3)CC2)=C(c2ccc(Cl)cc2)C1 [Venetoclax] + C=CCn1c(=O)c2cnc(Nc3ccc(N4CCN(C)CC4)cc3)nc2n1-c1cccc(C(C)(C)O)n1 [AZD1775] (first compound max 1 µM, partner max 1 µM) | 0.103 | -0.0447 | 0.0078 | 0.0009 | -0.0319 | 0.054 | -0.0371 | -0.0787 | 0.0401 | -0.014 | -0.0375 | 0.0125 | -0.0538 | -0.0497 | -0.0002 | 0.0033 | 0.0747 | 0.069 | -0.0132 | -0.0649
6 | CC1(C)CCC(CN2CCN(c3ccc(C(=O)NS(=O)(=O)c4ccc(NCC5CCOCC5)c([N+](=O)[O-])c4)c(Oc4cnc5[nH]ccc5c4)c3)CC2)=C(c2ccc(Cl)cc2)C1 [Venetoclax] + CCN(CCO)CCCOc1ccc2c(Nc3cc(CC(=O)Nc4cccc(F)c4)[nH]n3)ncnc2c1 [AZD2811] (first compound max 1 µM, 7x7, partner max 1 µM) | 0.0178 | -0.0165 | -0.01 | 0.0166 | -0.137 | 0.0275 | -0.0312 | -0.0104 | 0.0103 | 0.0063 | -0.0053 | 0.0094 | 0.0148 | -0.0499 | -0.0373 | -0.0198 | 0.0721 | 0.0086 | -0.0567 | -0.0404
7 | CC1(C)CCC(CN2CCN(c3ccc(C(=O)NS(=O)(=O)c4ccc(NCC5CCOCC5)c([N+](=O)[O-])c4)c(Oc4cnc5[nH]ccc5c4)c3)CC2)=C(c2ccc(Cl)cc2)C1 [Venetoclax] + CN(C)CCCOc1ccc(-c2ccc3ncc4c(c3c2)n(C2CCOCC2)c(=O)n4C)cn1 [AZD0156] (first compound max 1 µM, 7x7, partner max 1 µM) | 0.0278 | -0.0128 | 0.0232 | -0.0067 | 0.0008 | -0.0296 | -0.0549 | -0.026 | -0.0201 | -0.0292 | -0.0341 | 0.0165 | -0.0126 | -0.034 | -0.0096 | -0.0161 | 0.0421 | 0.0137 | -0.0332 | -0.0501
8 | CC1(C)CCC(CN2CCN(c3ccc(C(=O)NS(=O)(=O)c4ccc(NCC5CCOCC5)c([N+](=O)[O-])c4)c(Oc4cnc5[nH]ccc5c4)c3)CC2)=C(c2ccc(Cl)cc2)C1 [Venetoclax] + COc1cc(Nc2ncc3c(n2)-c2ccc(Cl)cc2C(c2c(F)cccc2OC)=NC3)ccc1C(=O)O [Alisertib] (first compound max 1 µM, 7x7, partner max 10 µM) | 0.116 | -0.0463 | -0.0387 | -0.0319 | -0.0436 | -0.0522 | -0.0712 | 0.0027 | -0.0869 | -0.0185 | 0.116 | 0.0342 | -0.0669 | -0.0654 | 0.0544 | -0.0072 | 0.0385 | 0.161 | -0.0705 | -0.0547
9 | CC1(C)CCC(CN2CCN(c3ccc(C(=O)NS(=O)(=O)c4ccc(NCC5CCOCC5)c([N+](=O)[O-])c4)c(Oc4cnc5[nH]ccc5c4)c3)CC2)=C(c2ccc(Cl)cc2)C1 [Venetoclax] + C[C@@H]1COCCN1C2=NC(=NC(=C2)C3(CC3)[S@](=N)(=O)C)C4=C5C=CNC5=NC=C4 [AZD6738] (first compound max 1 µM, 7x7, partner max 10 µM) | 0.0191 | -0.013 | -0.032 | -0.003 | 0.0001 | -0.0346 | -0.0293 | -0.0405 | -0.0176 | -0.0327 | -0.0251 | 0.0094 | 0.0189 | -0.0419 | 0.0449 | -0.105 | -0.0268 | 0.028 | -0.0247 | -0.0458
10 | CC1(C)CCC(CN2CCN(c3ccc(C(=O)NS(=O)(=O)c4ccc(NCC5CCOCC5)c([N+](=O)[O-])c4)c(Oc4cnc5[nH]ccc5c4)c3)CC2)=C(c2ccc(Cl)cc2)C1 [Venetoclax] + C[C@@H](Nc1cc(F)cc(F)c1)c1cc(C(=O)N(C)C)cc2c(=O)cc(N3CCOCC3)oc12 [AZD8186] (first compound max 1 µM, 7x7, partner max 3 µM) | 0.0053 | -0.0487 | -0.0516 | -0.0419 | 0.0218 | -0.0168 | -0.0975 | -0.0431 | -0.041 | -0.0215 | -0.0205 | 0.006 | -0.0327 | -0.0118 | 0.201 | -0.0706 | -0.0374 | 0.027 | -0.0747 | -0.0557
11 | CC1(C)CCC(CN2CCN(c3ccc(C(=O)NS(=O)(=O)c4ccc(NCC5CCOCC5)c([N+](=O)[O-])c4)c(Oc4cnc5[nH]ccc5c4)c3)CC2)=C(c2ccc(Cl)cc2)C1 [Venetoclax] + Cc1cc2ncnn2cc1Nc1ncc2c(n1)n(C1CCOCC1)c(=O)n2C [AZD7648] (first compound max 1 µM, 7x7, partner max 10 µM) | -0.0221 | -0.0235 | -0.0081 | -0.0563 | -0.0007 | -0.0684 | -0.0531 | -0.0719 | -0.0318 | -0.0288 | -0.0253 | 0.003 | -0.0129 | -0.0624 | 0.0482 | -0.0266 | 0.0149 | 0.0588 | -0.0705 | -0.0529
12 | CC1(C)CCC(CN2CCN(c3ccc(C(=O)NS(=O)(=O)c4ccc(NCC5CCOCC5)c([N+](=O)[O-])c4)c(Oc4cnc5[nH]ccc5c4)c3)CC2)=C(c2ccc(Cl)cc2)C1 [Venetoclax] + Cn1cnc2c(F)c(Nc3ccc(Br)cc3Cl)c(C(=O)NOCCO)cc21 [Selumetinib] (first compound max 1 µM, 7x7, partner max 3 µM) | -0.0048 | -0.0481 | -0.0116 | -0.0129 | 0.0065 | -0.0318 | -0.0298 | -0.0521 | -0.0738 | -0.0377 | -0.0086 | 0.0072 | -0.0213 | -0.0011 | 0.0372 | -0.0332 | -0.0068 | -0.0159 | -0.0165 | -0.0491
